# According to the supplement of paper PMC10307832:
# How the values were obtained:
# Experiment in all cases: relative viability (nuclei count vs DMSO), 5 days (fraction); higher = more cells survive
# Sulindac + Navitoclax = compound: CC1=C(CC(=O)O)c2cc(F)ccc2/C1=C\c1ccc([S+](C)[O-])cc1 [Sulindac] + CC1(C)CCC(c2ccc(Cl)cc2)=C(CN2CCN(c3ccc(C(=O)NS(=O)(=O)c4ccc(N[C@H](CCN5CCOCC5)CSc5ccccc5)c(S(=O)(=O)C(F)(F)F)c4)cc3)CC2)C1 [Navitoclax] (partner 0.5 µM)
# Outline: (§1)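 Medians of duplicate plates are given as relative viability. That measure is the nuclei count in treated wells divided by the count in vehicle wells. Counts were taken on 4× images of lung cancer cell lines in 1536-well plates, 5 days after pin-tool dosing the day after seeding with one drug alone or a fixed anchor-drug dose plus five library-drug doses (not always all listed) in √10 steps.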
# [1] = compound: O=c1[nH]cc(F)c(=O)[nH]1 [5-Fluorouracil] + CC1(C)CCC(c2ccc(Cl)cc2)=C(CN2CCN(c3ccc(C(=O)NS(=O)(=O)c4ccc(N[C@H](CCN5CCOCC5)CSc5ccccc5)c(S(=O)(=O)C(F)(F)F)c4)cc3)CC2)C1 [Navitoclax] (partner 0.5 µM)
# Outline: as §1
# [2] = compound: O=c1[nH]cc(F)c(=O)[nH]1 [5-Fluorouracil] + Cc1cc(Nc2cc(N3CCN(C)CC3)nc(Sc3ccc(NC(=O)C4CC4)cc3)n2)n[nH]1 [Tozasertib] (partner 0.1 µM)
# Outline: as §1
# [3] = compound: O=c1[nH]cc(F)c(=O)[nH]1 [5-Fluorouracil] + Cc1nc(NC(=O)N2CCC[C@H]2C(N)=O)sc1-c1ccnc(C(C)(C)C(F)(F)F)c1 [Alpelisib] (partner 2 µM)
# Outline: as §1
Cell Line,relative viability (Sulindac + Navitoclax; first compound 0.08 µM),relative viability (Sulindac + Navitoclax; first compound 0.253 µM),relative viability (Sulindac + Navitoclax; first compound 0.8 µM),relative viability (Sulindac + Navitoclax; first compound 2.53 µM),relative viability (Sulindac + Navitoclax; first compound 8 µM),relative viability ([1]; first compound 0.02 µM),relative viability ([1]; first compound 0.2 µM),relative viability ([1]; first compound 0.6325 µM),relative viability ([1]; first compound 2 µM),relative viability ([2]; first compound 0.02 µM),relative viability ([2]; first compound 0.2 µM),relative viability ([2]; first compound 0.6325 µM),relative viability ([2]; first compound 2 µM),relative viability ([3]; first compound 0.02 µM),relative viability ([3]; first compound 0.2 µM),relative viability ([3]; first compound 0.6325 µM),relative viability ([3]; first compound 2 µM)
EMC-BAC-2,1.49,1.21,0.776,1.19,1.23,1.19,1.2,1.25,1.19,0.293,0.292,0.33,0.287,0.733,0.773,0.801,0.768
EPLC-272H,1.16,,0.828,1.23,1.27,1.18,0.79,0.372,0.259,0.292,0.223,0.259,0.222,0.91,0.834,0.429,0.371
H3255,0.54,0.685,0.551,0.512,0.612,0.566,0.795,0.454,0.419,0.63,0.663,0.652,0.497,0.721,0.816,0.833,0.496
HARA,1.21,1.24,,1.18,1.14,1.12,1.15,1.11,1.15,0.165,0.122,0.129,0.103,0.902,0.925,0.809,0.748
HCC-15,0.811,0.795,0.625,0.708,0.798,0.761,0.77,0.469,0.298,0.396,0.455,0.43,0.232,0.921,0.836,0.494,0.29
HCC-44,1.21,1.08,0.904,1.15,1.02,0.916,0.984,0.744,0.341,1.19,0.844,0.739,0.291,0.824,0.722,0.4,0.267
HCC-78,0.784,0.716,0.711,0.71,0.77,0.55,0.805,0.285,,1.46,0.395,0.37,0.264,0.242,0.281,0.235,
HCC-366,1.32,1.19,0.817,0.957,1.18,1.19,0.992,0.545,0.125,0.193,0.0738,0.0902,0.0478,0.227,0.466,0.182,0.0921
HCC-827,1.04,1.02,0.997,0.973,1.08,0.969,1,0.592,0.382,,0.433,0.391,0.29,0.777,0.888,0.681,0.451
HOP-62,0.982,1.37,,1.21,1.22,1.09,1.13,1.01,0.805,0.368,0.364,0.389,0.319,0.835,1.03,0.844,0.754
